Structures can show the parent of a compound that is named as a salt. Bounds are passed on as bounds.

In one data set the target is T1, NMDA-receptor subtype 2B (Rattus norvegicus, UniProt P35439+Q00960).
T1 construct: Membranes were prepared by homogenization of the whole brain minus cerebellum and medulla oblongata; from tissue; host or cells: rat whole brain minus cerebellum and medulla oblongata (membranes)
Kind of data set: 3H-Ro 25-6981 binding (displacement) on rat brain membranes. Conditions: displacement of 5 nM 3H-Ro 25-6981, rat whole brain minus cerebellum and medulla oblongata membranes, 2 hours at 4° C., pH 7.4. The method, then: ^3H-Ro 25-6981 binding (Ro 25-6981 is [R-(R*,S*)]-α-(4-hydroxy-phenyl)-β-methyl-4-(phenyl-methyl)-1-piperidine propanol)
Male Füllinsdorf albino rats weighing between 150-200 g were used. Membranes were prepared by homogenization of the whole brain minus cerebellum and medulla oblongata with a Polytron (10.000 rpm, 30 seconds), in 25 volumes of a cold Tris-HCl 50 mM, EDTA 10 mM, pH 7.1 buffer. The homogenate was centrifuged at 48,000 g for 10 minutes at 4° C. The pellet was resuspended using the Polytron in the same volume of buffer and the homogenate was incubated at 37° C. for 10 minutes. After centrifugation the pellet was homogenized in the same buffer and frozen at −80° C. for at least 16 hours but not more than 10 days. For the binding assay the homogenate was thawed at 37° C., centrifuged and the pellet was washed three times as above in a Tris-HCl 5 mM, pH 7.4 cold buffer. The final pellet was resuspended in the same buffer and used at a final concentration of […].
^3H-Ro 25-6981 binding experiments were performed using a Tris-HCl 50 mM, pH 7.4 buffer. For displacement experiments 5 nM of ^3H-Ro 25-6981 were used and non specific binding was measured using 10 mM of tetrahydroisoquinoline and usually it accounts for 10% of the total. The incubation time was 2 hours at 4° C. and the assay was stopped by filtration on Whatmann GF/B glass fiber filters (Unifilter-96, Packard, Zurich, Switzerland). The filters were washed 5 times with cold buffer. The radioactivity on the filter was counted on a Packard Top-count microplate scintillation counter after addition of […] of microscint 40 (Canberra Packard S. A., Züirich, Switzerland).
The above procedure was performed to determine data for calculation of an IC50 value. The IC50 value is a concentration expressed in micromoles (μM) for a test compound at which 50% of the ligand (in this determination, ^3H-Ro 25-6981) bonded to the receptor is displaced. The binding ability of the compounds of the invention was measured in vitro using a minimum of 10 concentrations and repeated at least once. The specific binding at each concentration was then calculated as the % of the maximum specific binding (100%) obtained in the same experiment, in the absence of a test compound. Competitive displacement of ^3H-Ro 25-6981 was observed, with complete displacement of the radioligand from specific binding sites (usually about 0% of specific binding at the highest concentrations tested). An IC50 value was then calculated with all the ten datapoints (% of specific bound) by plotting the data on a semilogarithmic scale with a sigmoidal fit (Log of the molar concentration on X-axis vs. % of specific bound on the Y-axis) using Microsoft Excel fit software or Microcal Origin software. The pooled normalized values were analyzed using a non-linear regression calculation program which provide IC50 with their relative upper and lower 95% confidence limits.

T1 sequence (Q00960 27-1482, other chains not shown): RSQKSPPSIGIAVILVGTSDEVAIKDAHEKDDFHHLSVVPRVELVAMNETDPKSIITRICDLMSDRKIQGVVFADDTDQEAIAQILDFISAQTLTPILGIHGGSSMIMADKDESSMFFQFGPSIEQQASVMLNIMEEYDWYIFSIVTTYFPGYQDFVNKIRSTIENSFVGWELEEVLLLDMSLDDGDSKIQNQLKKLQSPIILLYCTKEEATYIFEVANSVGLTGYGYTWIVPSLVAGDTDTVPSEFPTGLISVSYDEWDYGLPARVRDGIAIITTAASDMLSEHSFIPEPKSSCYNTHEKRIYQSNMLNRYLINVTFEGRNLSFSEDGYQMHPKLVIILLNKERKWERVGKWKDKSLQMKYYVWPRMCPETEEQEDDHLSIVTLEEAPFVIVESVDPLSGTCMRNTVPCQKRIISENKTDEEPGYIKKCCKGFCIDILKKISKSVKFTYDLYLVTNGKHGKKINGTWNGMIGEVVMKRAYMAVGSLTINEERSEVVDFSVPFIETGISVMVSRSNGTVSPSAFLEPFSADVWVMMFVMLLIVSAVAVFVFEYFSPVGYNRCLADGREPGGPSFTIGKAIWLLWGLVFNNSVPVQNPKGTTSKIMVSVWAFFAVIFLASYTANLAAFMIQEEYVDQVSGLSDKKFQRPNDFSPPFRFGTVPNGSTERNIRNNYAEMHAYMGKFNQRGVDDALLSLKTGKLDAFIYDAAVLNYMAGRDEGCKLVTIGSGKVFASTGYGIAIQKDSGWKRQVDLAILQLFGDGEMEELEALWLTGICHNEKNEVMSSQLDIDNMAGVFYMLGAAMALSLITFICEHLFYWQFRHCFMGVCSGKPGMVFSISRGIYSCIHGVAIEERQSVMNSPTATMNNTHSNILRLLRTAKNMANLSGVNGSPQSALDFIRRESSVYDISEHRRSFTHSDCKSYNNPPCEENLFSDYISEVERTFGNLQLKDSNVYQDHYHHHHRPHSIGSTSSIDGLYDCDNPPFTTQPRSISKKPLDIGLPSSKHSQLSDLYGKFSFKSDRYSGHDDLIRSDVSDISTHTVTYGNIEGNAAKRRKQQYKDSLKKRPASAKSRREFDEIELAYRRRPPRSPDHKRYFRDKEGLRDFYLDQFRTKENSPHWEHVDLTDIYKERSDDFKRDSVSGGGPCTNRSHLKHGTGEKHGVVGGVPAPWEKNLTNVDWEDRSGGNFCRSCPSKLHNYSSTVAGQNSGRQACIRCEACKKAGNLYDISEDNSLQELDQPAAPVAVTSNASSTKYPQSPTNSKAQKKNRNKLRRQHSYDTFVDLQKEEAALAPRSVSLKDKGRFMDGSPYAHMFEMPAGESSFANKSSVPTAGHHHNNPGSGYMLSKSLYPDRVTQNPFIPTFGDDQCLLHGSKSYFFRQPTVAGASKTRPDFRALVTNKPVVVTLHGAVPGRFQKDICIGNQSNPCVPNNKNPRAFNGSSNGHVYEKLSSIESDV

A word on the melting point: it is the temperature, or range, at which the solid turns liquid. The molecule `CCNc1ccnc(N2CCc3ccccc3C2)c1` (as salt: fumarate) [Example 16, [2-(3,4-Dihydro-1H-isoquinolin-2-yl)-pyridin-4-yl]-ethyl-amine] showed a melting point of 73 to 74 °C.

In turn, `Clc1cccc2c1CN(c1ccncc1)CC2` (as salt: fumarate) [Example 26, 8-Chloro-2-pyridin-4-yl-1,2,3,4-tetrahydro-isoquinoline] yielded a melting point of 178 to 179 °C.

The molecule `Cc1cc(N2CCc3ccccc3C2)ccn1` (as salt: fumarate) [Example 31, 2-(2-Methyl-pyridin-4-yl)-1,2,3,4-tetrahydro-isoquinoline] yielded a melting point of 155 to 156 °C.

The molecule `Cc1cc(N2CCc3ccccc3C2)cc(N)n1` (as salt: fumarate) [Example 32, 4-(3,4-Dihydro-1H-isoquinolin-2-yl)-6-methyl-pyridin-2-yl-amine] came in with a melting point above 270 °C.

As for `Cc1cc(N2CCc3ccccc3C2)cc(NCCO)n1` (as salt: fumarate) [Example 35, 2-[4-(3,4-Dihydro-1H-isoquinolin-2-yl)-6-methyl-pyridin-2-yl-amino]-ethanol], the melting point came to 160 °C.

`Nc1cc(N2CCc3ccccc3C2)nc2c1CCCC2` (as salt: hydrochloride) [Example 7, 2-(3,4-Dihydro-1H-isoquinolin-2-yl)-5,6,7,8-tetrahydro-quinolin-4-yl-amine]: the melting point lay in the range of 109 to 110 °C.

`CN1COCc2c1ccnc2N1CCc2ccccc2C1` (as salt: hydrochloride) [Example 14, 5-(3,4-Dihydro-1H-isoquinolin-2-yl)-1-methyl-1,4-dihydro-2H-pyrido[4,3-d][1,3]oxazine] gave a melting point of 220 to 221 °C.

In the case of `NCc1cccc(N2CCc3ccccc3C2)n1` (as salt: hydrochloride) [Example 22, C-[6-(3,4-Dihydro-1H-isoquinolin-2-yl)-pyridin-2-yl]-methylamine], the melting point was 192 to 195 °C.

In the case of `Clc1cccc2c1CCN(c1ccncc1)C2` (as salt: hydrochloride) [Example 25, 5-Chloro-2-pyridin-4-yl-1,2,3,4-tetrahydro-isoquinoline], the melting point fell in the range of 258 to 259 °C.

`Clc1ccc2c(c1)CCN(c1ccncc1)C2` (as salt: hydrochloride) [Example 27, 6-Chloro-2-pyridin-4-yl-1,2,3,4-tetrahydro-isoquinoline]: the melting point was above 250 °C.

For the molecule `Clc1ccc2c(c1)CN(c1ccncc1)CC2` (as salt: hydrochloride) [Example 28, 7-Chloro-2-pyridin-4-yl-1,2,3,4-tetrahydro-isoquinoline], the melting point lay within 100 to 101 °C.

As for `CCOC(=O)C(=O)Nc1cc(N2CCc3ccccc3C2)cc(C)n1` (as salt: hydrochloride) [Example 33, N-[4-(3,4-Dihydro-1H-isoquinolin-2-yl)-6-methyl-pyridin-2-yl]-oxalamic acid ethyl ester], the melting point was > 160 °C (dec.).

`CC1CN(c2cc(N)ccn2)Cc2ccccc21` (racemic) (as salt: fumarate) [Example 2, Rac.-2-(4-Methyl-3,4-dihydro-1H-isoquinolin-2-yl)-pyridin-4-yl-amine]: the melting point was in the range of 178 to 179 °C.

In the case of `CC1CN(c2ccncc2)Cc2ccccc21` (racemic) (as salt: hydrochloride) [Example 29, rac.-4-Methyl-2-pyridin-4-yl-1,2,3,4-tetrahydro-isoquinoline], the melting point was in the range of 224 to 227 °C.

For orientation: IC50 means the concentration at which inhibition is half-maximal. On NMDA-receptor subtype 2B, `Nc1ccnc(N2CCc3ccccc3C2)c1` [Example 1, 2-(3,4-Dihydro-1H-isoquinolin-2-yl)-pyridin-4-yl-amine] returned an IC50 of 8 nM.

As to `Cc1cnc(N2CCc3ccccc3C2)cc1N` [Example 3, 2-(3,4-Dihydro-1H-isoquinolin-2-yl)-5-methyl-pyridin-4-yl-amine], the half-maximal inhibitory concentration (IC50) at NMDA-receptor subtype 2B was determined as 11 nM.

Turning to `Cc1cc(N)cc(N2CCc3ccccc3C2)n1` [Example 4, 2-(3,4-Dihydro-1H-isoquinolin-2-yl)-6-methyl-pyridin-4-yl-amine], the IC50 on NMDA-receptor subtype 2B was 14 nM.

Regarding `CCc1cc(N)cc(N2CCc3ccccc3C2)n1` [Example 5, 2-(3,4-Dihydro-1H-isoquinolin-2-yl)-6-ethyl-pyridin-4-yl-amine], the IC50 on NMDA-receptor subtype 2B stood at 5.3 nM.

`Nc1cc(CO)nc(N2CCc3ccccc3C2)c1` [Example 6, [4-Amino-6-(3,4-dihydro-1H-isoquinolin-2-yl)-pyridin-2-yl]-methanol] gave an IC50 on NMDA-receptor subtype 2B of 11 nM. Against the preceding molecule, the IC50 is about 2.1-fold higher.

For the molecule `OCCNc1ccnc(N2CCc3ccccc3C2)c1` [Example 9, 2-[2-(3,4-Dihydro-1H-isoquinolin-2-yl)-pyridin-4-yl-amino]-ethanol], the IC50 at NMDA-receptor subtype 2B was 6 nM. Compared with the last molecule, the IC50 is about 1.8-fold lower.

In turn, `Cc1cc(NCCO)cc(N2CCc3ccccc3C2)n1` [Example 10, 2-[2-(3,4-Dihydro-1H-isoquinolin-2-yl)-6-methyl-pyridin-4-yl-amino]-ethanol] displayed an IC50 at NMDA-receptor subtype 2B of 11 nM. This IC50 is about 1.8-fold higher than that of the molecule before.

As to `Nc1cc(N2CCc3ccccc3C2)ccn1` [Example 30, 4-(3,4-Dihydro-1H-isoquinolin-2-yl)-pyridin-2-yl-amine], the melting point fell in the range of 160 to 161 °C. The molecule further had an IC50 at NMDA-receptor subtype 2B of 4 nM.

Molecule `Cc1cc(N2CCc3ccccc3C2)ccn1` [Example 31, 2-(2-Methyl-pyridin-4-yl)-1,2,3,4-tetrahydro-isoquinoline] showed an IC50 on NMDA-receptor subtype 2B of 20 nM.

In the case of `Cc1cc(N2CCc3ccccc3C2)cc(N)n1` [Example 32, 4-(3,4-Dihydro-1H-isoquinolin-2-yl)-6-methyl-pyridin-2-yl-amine], the IC50 on NMDA-receptor subtype 2B came out at 11 nM.

On to `CCOC(=O)C(=O)Nc1cc(N2CCc3ccccc3C2)cc(C)n1` [Example 33, N-[4-(3,4-Dihydro-1H-isoquinolin-2-yl)-6-methyl-pyridin-2-yl]-oxalamic acid ethyl ester], for which the IC50 at NMDA-receptor subtype 2B was determined as 20 nM.

In turn, `Cc1cc(N2CCc3ccccc3C2)cc(NC(=O)CO)n1` [Example 34, N-[4-(3,4-Dihydro-1H-isoquinolin-2-yl)-6-methyl-pyridin-2-yl]-2-hydroxy-acetamide] gave a melting point of 160 to 162 °C.

In the case of `Cc1cc(N2CCc3ccccc3C2)cc(NCCO)n1` [Example 35, 2-[4-(3,4-Dihydro-1H-isoquinolin-2-yl)-6-methyl-pyridin-2-yl-amino]-ethanol], the IC50 on NMDA-receptor subtype 2B was determined as 4 nM.

Source of the values: patent US6831087B2, “Pyridine substituted isoquinoline derivatives” (Hoffmann-La Roche Inc., priority 2001, dated 2004).
